Experimental findings from ChEMBL document CHEMBL3588777, “Acetate-Derived Metabolites from the Brown Alga Lobophora variegata” (2015) are described below.

In assay [1] the test system is Staphylococcus aureus. The experiment in a line: Antibacterial activity against Staphylococcus aureus ATCC 25923 assessed as inhibition of bacterial growth at 100 ug/mL incubated at 37 degC for 24 hrs by broth microdilution assay. Type of assay: functional. The conditions noted are these: ATCC 25923, 24 h. On the technique in general: Dilution methods test growth across graded concentrations, often in twofold steps.

The subject of assay [2] is Escherichia coli. Nature of the assay: Antibacterial activity against Escherichia coli ATCC 25922 assessed as inhibition of bacterial growth at 100 ug/mL incubated at 37 degC for 24 hrs by broth microdilution assay. Type of assay: functional. The settings on record: ATCC 25922, 24 h.
Assay [3] deals with Enterococcus faecalis. Nature of the assay: Antibacterial activity against Enterococcus faecalis ATCC 29212 assessed as inhibition of bacterial growth at 100 ug/mL incubated at 37 degC for 24 hrs by broth microdilution assay. It is filed as functional. The conditions noted are these: ATCC 29212, 24 h.
Assay [4] deals with Staphylococcus aureus. Nature of the assay: Antibacterial activity against Staphylococcus aureus ATCC 25923 assessed as inhibition of bacterial growth incubated at 37 degC for 24 hrs by broth microdilution assay. Type of assay: functional. The conditions noted are these: ATCC 25923, 24 h.
Assay [5] deals with Escherichia coli. Nature of the assay: microbe, parasite or virus in culture. The settings on record: ATCC 25922, 24 h.
Description: Antibacterial activity against Escherichia coli ATCC 25922 assessed as inhibition of bacterial growth incubated at 37 degC for 24 hrs by broth microdilution assay
The test system of assay [6] is Enterococcus faecalis. The experiment in a line: microbe, parasite or virus in culture. The conditions noted are these: ATCC 29212, 24 h.
Description: Antibacterial activity against Enterococcus faecalis ATCC 29212 assessed as inhibition of bacterial growth incubated at 37 degC for 24 hrs by broth microdilution assay

What is called inhibition is the relative decrease from the control value, in per cent.

Converted amounts (≈) assume the structure as drawn.

As for `CCCCCCCCCCCC1=C(C(C)=O)C(=O)C[C@@H](O)C1`, the inhibition at 100 µg/mL amounted to 100% with Staphylococcus aureus [1], 29% in the assay with Escherichia coli [2] and 23% in the assay on Enterococcus faecalis [3]. Besides, the MIC90 in the assay with Staphylococcus aureus [4] is 25 mg/L (≈ 81 µM).
For `CCCCCCCCCCCc1cccc(O)c1C(C)=O`, the inhibition at 100 µg/mL was 65% in the assay with Staphylococcus aureus [1], -3.3% in the assay with Escherichia coli [2] and -1% in the assay on Enterococcus faecalis [3].
The corresponding values for `CCCCCCCCCCCc1cc(O)cc(O)c1C(C)=O` are 17%, -1% and -9.8%.
Taken in the same sequence, the figures for `CCCCCCCCCCC[C@H](O)C[C@H]1CC(=O)C=C(C)O1` were -8.5%, 27% and 23%.
`CCCCCCCCCCCC1CC=C/C(=C\C(C)=O)O1` (stereo not given): the inhibition at 100 µg/mL is -95% in the assay on Staphylococcus aureus [1], 15% in the assay on Escherichia coli [2] and 21% in the assay on Enterococcus faecalis [3].
With `CCCCCCCCCCCC1CC=C/C(=C/C(C)=O)O1` (stereo not given), the inhibition at 100 µg/mL in the assay on Staphylococcus aureus [1] was -57%; in the assay with Escherichia coli [2], 25%; with Enterococcus faecalis [3], 19%.
The corresponding values for `CCCCC/C=C\C/C=C\CCCCCCCC(=O)/C=C(/C)O` are -17%, -2.4% and -10%.
Regarding `O=C(O)c1cn(C2CC2)c2cc(N3CCNCC3)c(F)cc2c1=O` [CIPROFLOXACIN], the figures for the MIC90 against Escherichia coli [5], in the assay on Staphylococcus aureus [4] and with Enterococcus faecalis [6] were 0.016 mg/L (≈ 0.0483 µM), 0.5 mg/L (≈ 1.51 µM) and 1 mg/L (≈ 3.02 µM), respectively.
